Measured values taken from patent US20210115509A1, “BIOMARKER FOR IDENTIFYING SPECIFIC EXPOSURE TO KETONES AND METHOD OF IDENTIFICATION USING THE SAME” (KOREA INSTITUTE OF SCIENCE AND TECHNOLOGY, priority 2019, published 2021).

Legend:
[1] = tested on: BEAS-2B human bronchial epithelial cell line; experiment: MTT assay, cytotoxicity of ketone compounds in BEAS-2B cell line; type: cell-based; conditions: human, 48 h
Method: BEAS-2B (Korean Cell Line Bank), a human bronchial epithelial cell line, was cultured using RPMI 1640 medium (Gibco, USA) supplemented with 10% FBS until the cells grew to about a confluence of 70 to 80% in a 100 mm dish.
Among ketones belonging to mVOCs (microbial volatile organic compounds) exposed to the environment, acetone, 2-butanone, 2-pentanone, 2-hexanone and 2-heptanone were selected, and the chemicals were dissolved in filtered distilled water (DW). A vehicle concentration was set to 0.1% or less in all experiments.
MTT assay using a BEAS-2B cell line was performed in accordance with the method of Mossman et al. (J. Immunol. Methods, 65, 55-63, 1983).
Specifically, the cells were seeded at a density of 3.5×10^4 cells/well in a 24-well plate and treated with the five ketone compounds dissolved in filtered distilled water, prepared in Example 1-2. After 48 hours, the result was mixed with 5 mg/ml of MTT (3-4,5-dimethylthiazol-2,5-diphenyltetrazolium bromide), added to a tube and incubated at 37° C. for 3 hours. Then, the medium was removed, the formed formazan crystal was dissolved in 500 μl of DMSO, and then 100 μl of the solution was transferred to a 96-well plate to measure an OD (optical density) value at 540 nm.

[2] = tested on: BEAS-2B human bronchial epithelial cell line; experiment: Gene expression change by high-throughput RNA sequencing (NextSeq 500) in ketone-exposed BEAS-2B cells; type: cell-based
Method: RNA was extracted from cell samples of ketone-exposed and non-ketone-exposed groups using a TRIzol reagent (Life Technologies, USA) in accordance with the manufacturer's directions to isolate total RNA and the total RNA was purified using a RNeasy mini kit (Qiagen, USA). The concentration of each total RNA sample was determined by a ND-2000 spectrophotometer (Thermo Inc., DE, USA) as a spectrophotometer and Agilent 2100 Bioanalyzer (Agilent Technologies, USA).
The establishment of libraries from the total RNA obtained in Example 2-1 in the experimental group and the normal control group exposed to the ketones was carried out using a QuantSeq 3′ mRNA-Seq Library Prep Kit (Lexogen, Inc., Austria) in accordance with the manufacturer's directions. 500 ng of the total RNA was hybridized with an oligo-dT primer including an Illumina-compatible sequence at the 5′ end of RNA, followed by reverse transcription. After degradation of the RNA template, a second strand was synthesized using a random primer including an Illumina-compatible linker sequence at the 5′ end thereof. Double-stranded libraries were purified using magnetic beads to remove all reaction components. The library was amplified in order to add the entire adapter sequence required for cluster production, and the completed cDNA library was purified from the PCR components.
Sequencing was performed by high-throughput sequencing as single-end 75 sequencing using a NextSeq 500 (IIlumina, Inc., USA). Read count (RC) data was processed based on the quantile normalization method using EdgeR in R (R development Core Team, 2016) using Bioconductor (Gentleman et al., 2004). Gene classification was based on searches performed on DAVID (http://david.abcc.ncifcrf.gov/) and the Medline database (http://www.ncbi.nlm.nih.gov/).
The extracted data were analyzed through normalization using Agilent GeneSpring GX 12.6.1 (Agilent technologies, CA, USA) to analyze the expression pattern of each gene.

[3] = IC5 conc.: Acetone 5.38, 2-Butanone 22.27, 2-Pentanone 5.24, 2-Hexanone 14.82, 2-Heptanone 5.05 mM
[4] = IC20 conc.: Acetone 71.90, 2-Butanone 106.21, 2-Pentanone 39.38, 2-Hexanone 52.51, 2-Heptanone 20.22 mM

Structure (SMILES): CCCCCC(C)=O [2-Heptanone, 2-heptanone]
- concentration (105) providing a survival rate (viability) of 95% [1]: 5050 µM
- concentration (1020) providing a survival rate (viability) of 80% [1]: 20220 µM
- Fold change ADRA2A (NM_000681) [2, 3]: 0.321
- Fold change ATRNL1 (NR_074088) [2, 3]: 3.365
- Fold change C12orf79 (NR_046159) [2, 3]: 0.213
- Fold change C14orf80 (NR_046159) [2, 3]: 0.354
- Fold change CALML3 (NM_001286399) [2, 3]: 0.354
- Fold change CCDC184 (NM_001013635) [2, 3]: 4.098
- Fold change CD37 (NM_001040031) [2, 3]: 5.216
- Fold change CDHR1 (NM_001171971) [2, 3]: 0.386
- Fold change CHL1 (NM_001253387) [2, 3]: 0.122
- Fold change COL4A3 (NM_000091) [2, 3]: 4.774
- Fold change CRLF2 (NM_022148) [2, 3]: 0.355
- Fold change CSF3R (NM_172313) [2, 3]: 0.354
- Fold change DNMBP-AS1 (NR_024130) [2, 3]: 2.035
- Fold change EGR1 (NM_001964) [2, 3]: 0.410
- Fold change GNA14 (NM_004297) [2, 3]: 4.971
- Fold change LOC728752 (NR_036504) [2, 3]: 5.873
- Fold change PAX8 (NM_003466) [2, 3]: 4.275
- Fold change PRRT3-AS1 (NR_046734) [2, 3]: 2.285
- Fold change RBP3 (NM_002900) [2, 3]: 0.354
- Fold change SEPT14 (NM_207366) [2, 3]: 0.214
- Fold change SERPINA12 (NM_001304461) [2, 3]: 0.354
- Fold change SLC13A4 (NM_012450) [2, 3]: 4.638
- Fold change SPOCK2 (NM_001244950) [2, 3]: 4.800
- Fold change TSPAN1 (NM_005727) [2, 3]: 4.660
- Fold change USP12-AB1 (NR_046647) [2, 3]: 11.319
- Fold change VIPR†-AS1 (NR_046654) [2, 3]: 0.354
- Fold change XIRP1 (NM_001198621) [2, 3]: 0.354
- Fold change ZFP69B (NM_023070) [2, 3]: 3.346
- Fold change ZNF432 (NM_014650) [2, 3]: 3.207
- Fold change ZNF487 (NR_026693) [2, 3]: 0.354
- Fold change ADRA2A (NM_000681) [2, 4]: 0.179
- Fold change ATRNL1 (NR_074088) [2, 4]: 3.204
- Fold change C12orf79 (NR_046159) [2, 4]: 0.213
- Fold change C14orf80 (NR_046159) [2, 4]: 0.354
- Fold change CALML3 (NM_001286399) [2, 4]: 0.354
- Fold change CCDC184 (NM_001013635) [2, 4]: 6.381
- Fold change CD37 (NM_001040031) [2, 4]: 3.227
- Fold change CDHR1 (NM_001171971) [2, 4]: 0.216
- Fold change CHL1 (NM_001253387) [2, 4]: 0.335
- Fold change COL4A3 (NM_000091) [2, 4]: 8.193
- Fold change CRLF2 (NM_022148) [2, 4]: 0.355
- Fold change CSF3R (NM_172313) [2, 4]: 0.354
- Fold change DNMBP-AS1 (NR_024130) [2, 4]: 11.098
- Fold change EGR1 (NM_001964) [2, 4]: 0.381
- Fold change GNA14 (NM_004297) [2, 4]: 4.498
- Fold change LOC728752 (NR_036504) [2, 4]: 5.440
- Fold change PAX8 (NM_003466) [2, 4]: 4.602
- Fold change PRRT3-AS1 (NR_046734) [2, 4]: 2.525
- Fold change RBP3 (NM_002900) [2, 4]: 0.354
- Fold change SEPT14 (NM_207366) [2, 4]: 0.214
- Fold change SERPINA12 (NM_001304461) [2, 4]: 0.354
- Fold change SLC13A4 (NM_012450) [2, 4]: 11.825
- Fold change SPOCK2 (NM_001244950) [2, 4]: 2.838
- Fold change TSPAN1 (NM_005727) [2, 4]: 3.058
- Fold change USP12-AB1 (NR_046647) [2, 4]: 4.509
- Fold change VIPR†-AS1 (NR_046654) [2, 4]: 0.354
- Fold change XIRP1 (NM_001198621) [2, 4]: 0.354
- Fold change ZFP69B (NM_023070) [2, 4]: 2.674
- Fold change ZNF432 (NM_014650) [2, 4]: 4.845
- Fold change ZNF487 (NR_026693) [2, 4]: 0.354

Structure (SMILES): CCCCC(C)=O [2-Hexanone, 2-hexanone]
- concentration (105) providing a survival rate (viability) of 95% [1]: 14820 µM
- concentration (1020) providing a survival rate (viability) of 80% [1]: 52510 µM
- Fold change ADRA2A (NM_000681) [2, 3]: 0.410
- Fold change ATRNL1 (NR_074088) [2, 3]: 2.058
- Fold change C12orf79 (NR_046159) [2, 3]: 0.218
- Fold change C14orf80 (NR_046159) [2, 3]: 0.358
- Fold change CALML3 (NM_001286399) [2, 3]: 0.358
- Fold change CCDC184 (NM_001013635) [2, 3]: 3.872
- Fold change CD37 (NM_001040031) [2, 3]: 4.214
- Fold change CDHR1 (NM_001171971) [2, 3]: 0.228
- Fold change CHL1 (NM_001253387) [2, 3]: 0.296
- Fold change COL4A3 (NM_000091) [2, 3]: 4.765
- Fold change CRLF2 (NM_022148) [2, 3]: 0.362
- Fold change CSF3R (NM_172313) [2, 3]: 0.358
- Fold change DNMBP-AS1 (NR_024130) [2, 3]: 14.919
- Fold change EGR1 (NM_001964) [2, 3]: 0.448
- Fold change GNA14 (NM_004297) [2, 3]: 8.515
- Fold change LOC728752 (NR_036504) [2, 3]: 6.212
- Fold change PAX8 (NM_003466) [2, 3]: 5.964
- Fold change PRRT3-AS1 (NR_046734) [2, 3]: 2.811
- Fold change RBP3 (NM_002900) [2, 3]: 0.358
- Fold change SEPT14 (NM_207366) [2, 3]: 0.220
- Fold change SERPINA12 (NM_001304461) [2, 3]: 0.358
- Fold change SLC13A4 (NM_012450) [2, 3]: 4.947
- Fold change SPOCK2 (NM_001244950) [2, 3]: 4.851
- Fold change TSPAN1 (NM_005727) [2, 3]: 2.828
- Fold change USP12-AB1 (NR_046647) [2, 3]: 3.862
- Fold change VIPR†-AS1 (NR_046654) [2, 3]: 0.358
- Fold change XIRP1 (NM_001198621) [2, 3]: 0.358
- Fold change ZFP69B (NM_023070) [2, 3]: 4.095
- Fold change ZNF432 (NM_014650) [2, 3]: 5.206
- Fold change ZNF487 (NR_026693) [2, 3]: 0.358
- Fold change ADRA2A (NM_000681) [2, 4]: 0.179
- Fold change ATRNL1 (NR_074088) [2, 4]: 2.281
- Fold change C12orf79 (NR_046159) [2, 4]: 0.213
- Fold change C14orf80 (NR_046159) [2, 4]: 0.354
- Fold change CALML3 (NM_001286399) [2, 4]: 0.354
- Fold change CCDC184 (NM_001013635) [2, 4]: 6.982
- Fold change CD37 (NM_001040031) [2, 4]: 2.819
- Fold change CDHR1 (NM_001171971) [2, 4]: 0.432
- Fold change CHL1 (NM_001253387) [2, 4]: 0.364
- Fold change COL4A3 (NM_000091) [2, 4]: 4.424
- Fold change CRLF2 (NM_022148) [2, 4]: 0.355
- Fold change CSF3R (NM_172313) [2, 4]: 0.354
- Fold change DNMBP-AS1 (NR_024130) [2, 4]: 5.009
- Fold change EGR1 (NM_001964) [2, 4]: 0.328
- Fold change GNA14 (NM_004297) [2, 4]: 4.986
- Fold change LOC728752 (NR_036504) [2, 4]: 6.982
- Fold change PAX8 (NM_003466) [2, 4]: 2.992
- Fold change PRRT3-AS1 (NR_046734) [2, 4]: 3.123
- Fold change RBP3 (NM_002900) [2, 4]: 0.354
- Fold change SEPT14 (NM_207366) [2, 4]: 0.214
- Fold change SERPINA12 (NM_001304461) [2, 4]: 0.354
- Fold change SLC13A4 (NM_012450) [2, 4]: 7.012
- Fold change SPOCK2 (NM_001244950) [2, 4]: 3.833
- Fold change TSPAN1 (NM_005727) [2, 4]: 4.272
- Fold change USP12-AB1 (NR_046647) [2, 4]: 3.988
- Fold change VIPR†-AS1 (NR_046654) [2, 4]: 0.354
- Fold change XIRP1 (NM_001198621) [2, 4]: 0.354
- Fold change ZFP69B (NM_023070) [2, 4]: 2.573
- Fold change ZNF432 (NM_014650) [2, 4]: 4.577
- Fold change ZNF487 (NR_026693) [2, 4]: 0.354
